Legend:
Assay type in all cases: in vivo
[1] = tested on: annual ragweed (Ambrosia artemisiifolia L.); test: Test Example 11: pot test, soil treatment, visual growth inhibition; conditions: soil treatment, 28th day after treatment, read-out: Growth inhibition rate (%) of annual ragweed Measured value
Procedure: (§1) Upland field soil was put into a 1/300,000 ha pot, and seeds of annual ragweed (Ambrosia artemisiifolia L.) were sown. On the next day, predetermined amounts of ONEHOPE NYUZAI (tradename), Click (tradename), Mikado (tradename) and a wettable powder containing bicyclopyrone prepared in accordance with a conventional formulation method were diluted with water (in an amount corresponding to 1,000 L/ha) and applied for soil treatment by a small sprayer.
(§2) On the 28th day after treatment, the state of growth of the annual ragweed was visually observed to determine the growth inhibition rate (%). The growth inhibition rate (%) (measured value) and the growth inhibition rate (%) calculated in the same manner as in the above Test Example 1 are shown in Table 11.

[2] = tested on: wild oat (Avena fatua L.); test: Test Example 4: pot test, soil treatment, visual growth inhibition; conditions: soil treatment, 28th day after treatment, read-out: Growth inhibition rate (%) of wild oat Measured value
Procedure: as §1, with “1/1,000,000” for “1/300,000”, “wild oat (Avena fatua” for “annual ragweed (Ambrosia artemisiifolia”, “Click” for “Click (tradename), Mikado”
as §2, with “wild oat” for “annual ragweed”, “4.” for “11.”

[3] = tested on: prickly sida (Sida spinosa L.); test: Test Example 10: pot test, soil treatment, visual growth inhibition; conditions: soil treatment, 28th day after treatment, read-out: Growth inhibition rate (%) of prickly sida Measured value
Procedure: Upland field soil was put into a 1/300,000 ha pot, and seeds of prickly sida (Sida spinosa L.) were sown. On the next day, predetermined amounts of ONEHOPE NYUZAI (tradename), Click (tradename), Spectrum (tradename), Callisto (tradename) and Clio (tradename) were diluted with water (in an amount corresponding to 1,000 L/ha) and applied for soil treatment by a small sprayer.
as §2, with “prickly sida” for “annual ragweed”, “10.” for “11.”

[4] = tested on: guinea grass (Panicum maximum Jacq.); test: Test Example 17: pot test, soil and foliar treatment, visual growth inhibition; conditions: Megathyrsus maximus, 29th day after treatment, read-out: Growth inhibition rate (%) of guinea grass Measured value
Procedure: (§3) Upland field soil was put into a 1/1,000,000 ha pot, and seeds of guinea grass (Panicum maximum Jacq.) were sown. When the guinea grass reached 5.2 to 6.0-leaf stage, seeds of guinea grass were further sown in the same pot assuming conditions such that weeds would later grow. Three days later, predetermined amounts of ONEHOPE NYUZAI (tradename), Click (tradename) and Spectrum (tradename) were diluted with water in an amount corresponding to 300 L/ha and applied for soil treatment and for foliar treatment by a small sprayer.
as §2, with “29th” for “28th”, “guinea grass” for “annual ragweed”, “17.” for “11.”

[5] = tested on: Japanese millet (Echinochloa utilis Ohwi et Yabuno); test: Test Example 13: pot test, soil and foliar treatment, visual growth inhibition; conditions: soil treatment and foliar treatment, 28th day after treatment, read-out: Growth inhibition rate (%) of Japanese millet Measured value
Procedure: Upland field soil was put into a 1/1,000,000 ha pot, and seeds of Japanese millet (Echinochloa utilis Ohwi et Yabuno) were sown. When the Japanese millet reached 3.8 to 4.0-leaf stage, seeds of Japanese millet were further sown in the same pot. On the next day, predetermined amounts of ONEHOPE NYUZAI (tradename), Click (tradename) and a wettable powder containing bicyclopyrone prepared in accordance with a conventional formulation method were diluted with water (in an amount corresponding to 1,000 L/ha) and applied for soil treatment and for foliar treatment by a small sprayer.
as §2, with “Japanese millet” for “annual ragweed”, “13.” for “11.”

[6] = tested on: guinea grass (Panicum maximum Jacq.); test: Test Example 15: pot test, soil and foliar treatment, visual growth inhibition; conditions: Megathyrsus maximus, 31st day after treatment, read-out: Growth inhibition rate (%) of guinea grass Measured value
Procedure: as §3, with “On the next day,” for “Three days later,”, “Click (tradename), Spectrum” for “Click”, “Cadou” for “Spectrum”
as §2, with “31 st” for “28th”, “guinea grass” for “annual ragweed”, “15.” for “11.”

[7] = tested on: Japanese millet (Echinochloa utilis Ohwi et Yabuno); test: Test Example 9: pot test, soil treatment, visual growth inhibition; conditions: soil treatment, 28th day after treatment, read-out: Growth inhibition rate (%) of Japanese millet Measured value
Procedure: Upland field soil was put into a 1/300,000 ha pot, and seeds of Japanese millet (Echinochloa utilis Ohwi et Yabuno) were sown. On the next day, predetermined amounts of ONEHOPE NYUZAI (tradename), Click (tradename), Mikado (tradename) and a wettable powder containing bicyclopyrone prepared in accordance with a conventional formulation method were diluted with water (in an amount corresponding to 1,000 L/ha) and applied for soil treatment by a small sprayer.
as §2, with “Japanese millet” for “annual ragweed”, “9.” for “11.”

SMILES: COc1cc(OC)nc(NC(=O)NS(=O)(=O)c2ncccc2C(=O)N(C)C)n1 [Nicosulfuron, 2-(4,6-dimethoxypyrimidin-2-ylcarbamoylsulfamoyl)-N,N-dimethylnicotinamide]
- inhibition at 100 g/ha ([1]; 100 g/ha): 0%
- inhibition at 30 g/ha ([2]; 30 g/ha): 30%
- inhibition at 10 g/ha ([3]; 10 g/ha): 20%
- inhibition at 100 g/ha ([3]; 100 g/ha): 40%
- inhibition at 30 g/ha ([4]; 30 g/ha): 38%
- inhibition at 15 g/ha ([5]; 15 g/ha): 55%
- inhibition at 20 g/ha ([6]; 20 g/ha): 46%
- inhibition at 60 g/ha ([6]; 60 g/ha): 83%
- inhibition at 10 g/ha ([7]; 10 g/ha): 0%

SMILES: CCNc1nc(Cl)nc(NC(C)(C)C)n1 [Terbuthylazine, N^2-tert-butyl-6-chloro-N^4-ethyl-1,3,5-triazine-2,4-diamine]
- inhibition at 200 g/ha ([1]; 200 g/ha): 20%
- inhibition at 500 g/ha ([2]; 500 g/ha): 15%
- inhibition at 200 g/ha ([3]; 200 g/ha): 30%
- inhibition at 2000 g/ha ([3]; 2000 g/ha): 80%
- inhibition at 500 g/ha ([4]; 500 g/ha): 0%
- inhibition at 250 g/ha ([5]; 250 g/ha): 0%
- inhibition at 400 g/ha ([6]; 400 g/ha): 5%
- inhibition at 1200 g/ha ([6]; 1200 g/ha): 23%
- inhibition at 2000 g/ha ([7]; 2000 g/ha): 65%
